From PubChem BioAssay AID248 (DTP/NCI, 2004)
Values joined by “and” are separate entries in the source; they are usually repeats but may differ in a detail not shown here. Equal values may be shown once. Toxic doses and inconclusive results are not listed. No stated cut-off is given here; in the data, active means T/C of 150% or more; inactive means T/C below 125%.

Test system: L1210 leukemia ip in BDF1 mice, survival T/C
Test: NCI In Vivo Anticancer Drug Screen. Data for tumor model L1210 Leukemia (intraperitoneal) in B6D2F1 (BDF1) mice
Conditions: endpoint: mean survival time, higher = longer survival
Procedure, shortened: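 Read-out is survival time, reported as the treated-group measurement over the vehicle-control measurement.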

[1] = dose: 100.0 mg/kg/injection, schedule: Q01DX009 (ip), vehicle: other
[2] = dose: 100.0 mg/kg/injection, schedule: Q04DX003 (ip), vehicle: saline with Tween-80
[3] = dose: 200.0 mg/kg/injection, schedule: Q04DX003 (ip), vehicle: saline with Tween-80
[4] = dose: 400.0 mg/kg/injection, schedule: Q04DX003 (ip), vehicle: saline with Tween-80
[5] = dose: 100.0 mg/kg/injection, schedule: Q04DX002 (ip), vehicle: saline
[6] = dose: 200.0 mg/kg/injection, schedule: Q04DX002 (ip), vehicle: saline
[7] = dose: 100.0 mg/kg/injection, schedule: Q04DX003 (ip), vehicle: Klucel (hydroxypropylcellulose) (HPC)
[8] = dose: 200.0 mg/kg/injection, schedule: Q04DX003 (ip), vehicle: Klucel (hydroxypropylcellulose) (HPC)
[9] = dose: 100.0 mg/kg/injection, schedule: Q01DX009 (ip), vehicle: Klucel (hydroxypropylcellulose) (HPC)
[10] = dose: 200.0 mg/kg/injection, schedule: Q01DX009 (ip), vehicle: Klucel (hydroxypropylcellulose) (HPC)
[11] = dose: 400.0 mg/kg/injection, schedule: Q01DX009 (ip), vehicle: Klucel (hydroxypropylcellulose) (HPC)
[12] = dose: 400.0 mg/kg/injection, schedule: Q04DX003 (ip), vehicle: Klucel (hydroxypropylcellulose) (HPC)
[13] = dose: 100.0 mg/kg/injection, schedule: Q04DX002 (ip), vehicle: Klucel (hydroxypropylcellulose) (HPC)
[14] = dose: 200.0 mg/kg/injection, schedule: Q04DX002 (ip), vehicle: Klucel (hydroxypropylcellulose) (HPC)
[15] = dose: 400.0 mg/kg/injection, schedule: Q04DX002 (ip), vehicle: Klucel (hydroxypropylcellulose) (HPC)
[16] = dose: 100.0 mg/kg/injection, schedule: Q01DX009 (ip), vehicle: saline
[17] = dose: 100.0 mg/kg/injection, schedule: Q04DX003 (ip), vehicle: saline
[18] = dose: 200.0 mg/kg/injection, schedule: Q04DX003 (ip), vehicle: saline
[19] = dose: 400.0 mg/kg/injection, schedule: Q04DX003 (ip), vehicle: saline

Measured: T/C

CC1CC(C)(C)NC(=O)O1 (configuration not stated)
inactive: dose: 25.0 mg/kg/injection, schedule: Q01DX009 (ip), vehicle: other 93 % of control | dose: 25.0 mg/kg/injection, schedule: Q04DX003 (ip), vehicle: other 90 % of control | dose: 50.0 mg/kg/injection, schedule: Q01DX009 (ip), vehicle: other 92 % of control | dose: 50.0 mg/kg/injection, schedule: Q04DX003 (ip), vehicle: other 89 % of control | dose: 100.0 mg/kg/injection, schedule: Q01DX001 (ip), vehicle: other 103 % of control | [1] 92 % of control | dose: 100.0 mg/kg/injection, schedule: Q04DX003 (ip), vehicle: other 90 % of control

O=C(N=Nc1c(O)[nH]c2ccccc12)c1ccccc1[N+](=O)[O-]
inactive: dose: 100.0 mg/kg/injection, schedule: Q01DX001 (ip), vehicle: carboxymethylcellulose (CMC) 87 % of control | dose: 200.0 mg/kg/injection, schedule: Q01DX001 (ip), vehicle: carboxymethylcellulose (CMC) 90 % of control | dose: 400.0 mg/kg/injection, schedule: Q01DX001 (ip), vehicle: carboxymethylcellulose (CMC) 96 % of control

CCSCc1cnc(N)nc1-c1ccccc1
inactive: [2] 97 % of control | [3] 94 % of control | [4] 86 % of control

CC(=O)OC1CC(n2cc(C)c(=O)[nH]c2=O)OC1COP(=O)(N1CC1(C)C)N1CC1(C)C (configuration not stated)
inactive: dose: 50.0 mg/kg/injection, schedule: Q04DX002 (ip), vehicle: saline 110 % of control | [5] 112 % of control | [6] 123 % of control

C[N+](C)(C)CC(=O)N/N=C\c1c(O)ccc2ccccc12
inactive: dose: 25.0 mg/kg/injection, schedule: Q04DX003 (ip), vehicle: saline with Tween-80 97 % of control | dose: 50.0 mg/kg/injection, schedule: Q04DX003 (ip), vehicle: saline with Tween-80 104 % of control | [7] 100 % of control | [2] 97 % of control | [8] 93 % of control

COc1cc(C(=Nc2ccccc2)C(=Nc2ccccc2)c2cc(OC)c(OC)c(OC)c2)cc(OC)c1OC
inactive: dose: 25.0 mg/kg/injection, schedule: Q01DX009 (ip), vehicle: Klucel (hydroxypropylcellulose) (HPC) 98 % of control | dose: 50.0 mg/kg/injection, schedule: Q01DX009 (ip), vehicle: Klucel (hydroxypropylcellulose) (HPC) 91 % of control | [9] 90 % of control | [7] 100 % of control | [10] 95 % of control and 116 % of control | [8] 97 % of control | [11] 120 % of control | [12] 96 % of control

NC(N)=NNC(=O)C(=O)O
inactive: [2] 95 % of control | [3] 91 % of control | [4] 93 % of control

C=COCCCCCC
inactive: [5] 103 % of control | [6] 100 % of control | dose: 400.0 mg/kg/injection, schedule: Q04DX002 (ip), vehicle: saline 90 % of control

CN(Cc1ccc(Cl)cc1)C(=O)NCCCCCCNC(=O)N(C)Cc1ccc(Cl)cc1
inactive: [9] 100 % of control | [10] 94 % of control | [11] 92 % of control

COc1ccccc1C(=O)N/N=C/c1cccc([N+](=O)[O-])c1
inactive: [13] 96 % of control | [14] 89 % of control | [15] 89 % of control

c1ccc2cc(SSc3ccc4ccccc4c3)ccc2c1
inactive: [7] 95 % of control | [8] 89 % of control | [12] 86 % of control

CC(C)CCCC(C)C1CCC2C3CC=C4CC(O[N+](=O)[O-])CCC4(C)C3CCC12C (configuration not stated)
inactive: dose: 100.0 mg/kg/injection, schedule: Q04DX002 (ip), vehicle: saline with Tween-80 102 % of control | dose: 200.0 mg/kg/injection, schedule: Q04DX002 (ip), vehicle: saline with Tween-80 112 % of control | dose: 400.0 mg/kg/injection, schedule: Q04DX002 (ip), vehicle: saline with Tween-80 102 % of control

COc1c(OC)c2c3c(c(-c4c(C)cc5c(C(C)C)c(OC)c(OC)c6c5c4OC6=O)c(C)cc3c1C(C)C)OC2=O
inactive: dose: 75.0 mg/kg/injection, schedule: Q04DX003 (ip), vehicle: Klucel (hydroxypropylcellulose) (HPC) 105 % of control | dose: 150.0 mg/kg/injection, schedule: Q04DX003 (ip), vehicle: Klucel (hydroxypropylcellulose) (HPC) 92 % of control | dose: 300.0 mg/kg/injection, schedule: Q04DX003 (ip), vehicle: Klucel (hydroxypropylcellulose) (HPC) 92 % of control

O=C1Nc2cccc3c2N(CCC3)C2=C1CCC2
inactive: [13] 105 % of control | [14] 105 % of control | [15] 108 % of control

CC(C)c1ccc(/C=N/NC(=O)c2ccncc2)cc1
inactive: [16] 100 % of control

NCCCN
inactive: [17] 97 % of control | [18] 98 % of control | [19] 98 % of control

S=c1oc2cccc3c2n1CCC3
inactive: dose: 100.0 mg/kg/injection, schedule: Q01DX009 (ip), vehicle: saline with Tween-80 113 % of control | [2] 97 % of control | dose: 200.0 mg/kg/injection, schedule: Q01DX009 (ip), vehicle: saline with Tween-80 101 % of control | [3] 107 % of control | dose: 400.0 mg/kg/injection, schedule: Q01DX009 (ip), vehicle: saline with Tween-80 98 % of control | [4] 97 % of control

CCCCCCCC(=O)NC1CCC(C(C)(C)C)CC1 (configuration not stated)
inactive: [1] 100 % of control | dose: 200.0 mg/kg/injection, schedule: Q01DX009 (ip), vehicle: other 97 % of control | dose: 400.0 mg/kg/injection, schedule: Q01DX009 (ip), vehicle: other 106 % of control

CC(C)(C)C1CCC(O)C(Cl)C1 (configuration not stated)
inactive: [16] 100 % of control | dose: 200.0 mg/kg/injection, schedule: Q01DX009 (ip), vehicle: saline 98 % of control

Clc1ccc2nc(Cl)c(Cl)nc2c1
inactive: [7] 91 % of control | [8] 96 % of control

Oc1ccc(Br)cc1/C=N/NC(=S)Nc1cccc2cccnc12
inactive: dose: 200.0 mg/kg/injection, schedule: Q01DX001 (ip), vehicle: saline 94 % of control | dose: 400.0 mg/kg/injection, schedule: Q01DX001 (ip), vehicle: saline 96 % of control

NC(N)=N/N=C(/c1cccs1)C1CC1
inactive: dose: 15.0 mg/kg/injection, schedule: Q01DX Z (ip), vehicle: methylcellulose (MC) 101 % of control | dose: 15.0 mg/kg/injection, schedule: Q01DX Z (oral), vehicle: methylcellulose (MC) 92 % of control | dose: 30.0 mg/kg/injection, schedule: Q01DX Z (ip), vehicle: methylcellulose (MC) 96 % of control | dose: 30.0 mg/kg/injection, schedule: Q01DX Z (oral), vehicle: methylcellulose (MC) 97 % of control | dose: 60.0 mg/kg/injection, schedule: Q01DX Z (ip), vehicle: methylcellulose (MC) 110 % of control | dose: 120.0 mg/kg/injection, schedule: Q01DX Z (ip), vehicle: methylcellulose (MC) 97 % of control

O=CC(O)C(O)C(OC1OC(CO)C(OC2OC(CO)C(O)C(O)C2O)C(O)C1O)C(O)CO (configuration not stated)
inactive: [17] 93 % of control | [18] 93 % of control | [19] 94 % of control

N#Cc1ccc[n+](CCc2c[nH]c3ccccc23)c1
inactive: dose: 75.0 mg/kg/injection, schedule: Q01DX001 (ip), vehicle: saline 102 % of control

C=CCOCC(O)CN(CC(C)C)CC(C)C (configuration not stated)
inactive: [9] 112 % of control | [7] 95 % of control | [10] 101 % of control | [8] 88 % of control | [12] 105 % of control
